The structures appear in SMILES notation.

Holding throughout (assay type): cell-based
For experiment [1], the target named is T1, BRD2^BD1 (Homo sapiens, UniProt P25440+Q14145).
T1 construct: a single BD (BD1 or BD2) of a BRD protein was tagged at the C-terminus with an enhanced Green Fluorescent Protein (eGFP); P2A linker (part left after the co-translational cut; mCherry is released as a separate chain) (C); expressed in transfected cells
The experiment is described as follows: Rescue of degradation in reporter cell line by pre-treatment with inhibitors (compound 9). To be noted: pre-treated with 10 μM MLN4924 for 1 hour, then concentration series of the degrader for 24 hours. From the text: (§1) To evaluate the activity of KEAP1-BRD targeting degraders in the cell, FACS-enabled stable reporter cell lines for single Bromodomain (BD) of the BRD2, 3 and 4 proteins were developed using the pCDNA5/FRT vector of the FLp-In system and followed the manufacturer's protocol.
(§2) A DNA sequence was constructed where a single BD (BD1 or BD2) of a BRD protein was tagged at the C-terminus with an enhanced Green Fluorescent Protein (eGFP). This sequence was followed by a P2A linker and a sequence that codes for mCherry fluorescent protein. The P2A linker that is located between the eGFP-tagged protein and the mCherry causes a single cut in the backbone amide bonds of the polypeptide during the translation of the mRNA, resulting in generation of two polypeptide chains, an eGFP-tagged protein and a mCherry protein. The expression level of these two polypeptides is therefore identical as they originate from a single mRNA, making the mCherry signal an expression level reporter as an internal reference.
(§3) The reporter cell lines were seeded on a 48-well plate the day before. […]
(§4) The treated cells were then harvested by trypsin digest, brought to a volume of 200 μL with DMEM medium supplemented with 10% FBS and transferred to a 96-well assay plate for FACS reading. The eGFP/RFP ratio for each condition was then calculated and normalized against the zero-compound condition and plotted. […]

The target of experiment [2] is T2, BRD2^BD1 (Homo sapiens, UniProt P25440).
T2 construct: a single BD (BD1 or BD2) of a BRD protein was tagged at the C-terminus with an enhanced Green Fluorescent Protein (eGFP); P2A linker (part left after the co-translational cut; mCherry is released as a separate chain) (C); expressed in transfected cells
The description is as above. To be noted: pre-treated with 10 μM JQ1 for 1 hour, then concentration series of the degrader for 24 hours.
Source text: as §1, §2, §3, §4

In experiment [3] the target is T3, BRD4 (Homo sapiens, UniProt O60885).
T3 construct: endogenous in cells; host or cells: MM.1S multiple myeloma cells
The experiment is described as follows: Immunoblot of MM.1S multiple myeloma cells. To be noted: MM.1S cells. As to the method:
(§5) MM.1S multiple myeloma cells were treated with 0, 1, 5 μM bifunctional compound 1 and 9 or bifunctional compound 20 (0.5 μM, as a positive control, known degrader of BRD) for 14 or 24 h, then lysed and immunoblotted with antibodies to BRD2, BRD3, BRD4 and β-Actin.
(§6) MM.1S multiple myeloma cells were treated with 0, 1, 5 μM bifunctional compound 1 and 9 or bifunctional compound 20 (0.5 μM, as a positive control) for 14 or 24 h, then lysed and immunoblotted with antibodies to BRD2, BRD3, BRD4 and β-Actin.

Experiment [4] addresses T4, BRD3 (Homo sapiens, UniProt Q15059).
T4 construct: endogenous in cells; host or cells: MM.1S multiple myeloma cells
Kind of experiment: Immunoblot of MM.1S multiple myeloma cells. To be noted: MM.1S cells. As to the method: as §5, §6
(In general: A western blot detects proteins with antibodies after separation by electrophoresis.)

Experiment [5] addresses T5, BRD2 (Homo sapiens, UniProt P25440). The experiment is described as follows: TMT quantitative proteomics, change in relative protein abundance in HEK293T cells. On the set-up: endogenous in cells; host or cells: HEK293T cells. The conditions noted are these: 5 μM, 6 hours. As to the method:
Lysis buffer (8 M Urea, 50 mM NaCl, 50 mM 4-(2hydroxyethyl)-1-piperazineethanesulfonic acid (EPPS) pH 8.5. Protease and Phosphatase inhibitors from Roche) was added to the cell pellets and homogenized by 20 passes through a 21 gauge (1.25 in. long) needle to achieve a cell lysate with a protein concentration between 1-4 mg/mL. A micro-BCA assay (Pierce™) was used to determine the final protein concentration in the cell lysate. 200 μg of protein for each sample were reduced and alkylated as previously described. Proteins were precipitated using methanol/chloroform. In brief, four volumes of methanol were added to the cell lysate, followed by one volume of chloroform, and finally three volumes of water. The mixture was vortexed and centrifuged to separate the chloroform phase from the aqueous phase. […]
Precipitated protein was resuspended in 4 M urea, 50 mM HEPES pH 7.4, followed by dilution to 1 M urea with the addition of 200 mM EPPS, pH 8. […] The sample channels were combined at a 1:1:1:1:1:1:1:1:1:1 ratio, desalted using C18 solid phase extraction cartridges (Waters™) and analyzed by LC-MS for channel ratio comparison.
Samples were then combined using the adjusted volumes determined in the channel ratio analysis and dried down in a speed vacuum. […]

The test system of experiment [6] is BRD2-BD1, BRD2-BD2, BRD3-BD1, BRD3-BD2, BRD4-BD1, BRD4-BD2 as GFP fusion proteins. Kind of experiment: FACS eGFP/mCherry reporter cell lines for single bromodomains, degradation compared across bromodomains. To be noted: concentration series starting at 20 μM, 5× dilution, 24 hours at 37° C.
Source text: as §1
as §2, with “reference. […]” for “reference.”
as §4

In experiment [7] the target is T5, BRD2. Kind of experiment: Immunoblot of MM.1S multiple myeloma cells. On the set-up: endogenous in cells; host or cells: MM.1S multiple myeloma cells. The conditions noted are these: MM.1S cells. As to the method:
as §5, §6

The target of experiment [8] is T6, BRD2BD2 (Homo sapiens, UniProt P25440).
T6 construct: a single BD (BD1 or BD2) of a BRD protein was tagged at the C-terminus with an enhanced Green Fluorescent Protein (eGFP); P2A linker (part left after the co-translational cut; mCherry is released as a separate chain) (C); expressed in transfected cells
The experiment is described as follows: Rescue of degradation in reporter cell line by pre-treatment with inhibitors (compound 1). To be noted: then concentration series of the degrader for 24 hours.
Source text: as §1
as §2, with “reference. […]” for “reference.”
The treated cells were then harvested by trypsin digest, brought to a volume of 200 μL with DMEM medium supplemented with 10% FBS and transferred to a 96-well assay plate for FACS reading. The eGFP/RFP ratio for each condition was then calculated and normalized against the zero-compound condition and plotted.
The rescue of BRD2BD2 degradation with two inhibitors JQ1 and MLN4924 was then determined. […]

T5 sequence (P25440 whole entry): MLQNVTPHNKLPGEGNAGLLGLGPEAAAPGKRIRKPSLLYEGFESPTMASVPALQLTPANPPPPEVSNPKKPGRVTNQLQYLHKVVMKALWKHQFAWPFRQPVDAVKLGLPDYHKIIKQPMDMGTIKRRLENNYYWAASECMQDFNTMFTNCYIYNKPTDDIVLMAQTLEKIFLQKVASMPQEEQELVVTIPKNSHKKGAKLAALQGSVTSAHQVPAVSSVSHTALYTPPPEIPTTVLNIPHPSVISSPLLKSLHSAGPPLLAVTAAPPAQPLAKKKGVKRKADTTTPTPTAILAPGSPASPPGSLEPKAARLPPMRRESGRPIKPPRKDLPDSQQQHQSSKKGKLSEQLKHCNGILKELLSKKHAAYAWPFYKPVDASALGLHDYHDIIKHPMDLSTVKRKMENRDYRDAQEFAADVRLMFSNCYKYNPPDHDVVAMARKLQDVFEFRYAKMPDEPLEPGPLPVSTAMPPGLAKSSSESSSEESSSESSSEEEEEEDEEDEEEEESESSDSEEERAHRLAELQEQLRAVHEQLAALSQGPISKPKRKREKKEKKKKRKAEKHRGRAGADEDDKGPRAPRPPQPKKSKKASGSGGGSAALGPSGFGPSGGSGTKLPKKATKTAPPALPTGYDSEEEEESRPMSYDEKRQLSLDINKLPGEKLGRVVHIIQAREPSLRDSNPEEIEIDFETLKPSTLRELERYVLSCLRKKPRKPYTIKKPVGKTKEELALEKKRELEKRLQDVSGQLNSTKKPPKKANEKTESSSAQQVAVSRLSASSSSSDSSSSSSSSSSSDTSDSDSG
T4 sequence (Q15059 whole entry): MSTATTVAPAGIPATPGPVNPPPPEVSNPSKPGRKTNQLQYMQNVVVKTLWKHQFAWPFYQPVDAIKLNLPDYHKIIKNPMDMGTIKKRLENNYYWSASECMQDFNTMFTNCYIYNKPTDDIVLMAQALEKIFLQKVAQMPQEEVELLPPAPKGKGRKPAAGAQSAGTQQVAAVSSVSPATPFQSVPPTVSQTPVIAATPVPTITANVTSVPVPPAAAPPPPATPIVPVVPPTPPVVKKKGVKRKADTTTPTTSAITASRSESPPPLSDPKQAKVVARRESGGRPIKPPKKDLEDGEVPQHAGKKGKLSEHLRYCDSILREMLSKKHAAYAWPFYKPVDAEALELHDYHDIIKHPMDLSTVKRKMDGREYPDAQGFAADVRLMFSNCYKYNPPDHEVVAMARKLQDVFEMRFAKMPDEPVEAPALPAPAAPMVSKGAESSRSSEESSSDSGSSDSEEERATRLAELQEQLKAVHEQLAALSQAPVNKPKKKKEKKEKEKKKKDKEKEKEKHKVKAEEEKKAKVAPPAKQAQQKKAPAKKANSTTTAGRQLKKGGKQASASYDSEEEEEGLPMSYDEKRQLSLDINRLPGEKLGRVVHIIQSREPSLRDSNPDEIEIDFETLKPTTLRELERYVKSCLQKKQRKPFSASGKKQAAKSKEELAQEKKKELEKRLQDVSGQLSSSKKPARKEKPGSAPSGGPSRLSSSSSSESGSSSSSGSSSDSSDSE
T6 sequence (P25440 344-453): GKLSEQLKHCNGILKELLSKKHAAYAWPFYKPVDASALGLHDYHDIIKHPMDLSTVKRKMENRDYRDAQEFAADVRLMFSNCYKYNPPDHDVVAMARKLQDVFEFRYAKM
T1 sequence (P25440 74-180 limits assumed): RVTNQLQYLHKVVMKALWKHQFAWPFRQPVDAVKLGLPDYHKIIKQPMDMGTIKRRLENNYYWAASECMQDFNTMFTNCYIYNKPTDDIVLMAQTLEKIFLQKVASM
T1 sequence (Q14145 whole entry): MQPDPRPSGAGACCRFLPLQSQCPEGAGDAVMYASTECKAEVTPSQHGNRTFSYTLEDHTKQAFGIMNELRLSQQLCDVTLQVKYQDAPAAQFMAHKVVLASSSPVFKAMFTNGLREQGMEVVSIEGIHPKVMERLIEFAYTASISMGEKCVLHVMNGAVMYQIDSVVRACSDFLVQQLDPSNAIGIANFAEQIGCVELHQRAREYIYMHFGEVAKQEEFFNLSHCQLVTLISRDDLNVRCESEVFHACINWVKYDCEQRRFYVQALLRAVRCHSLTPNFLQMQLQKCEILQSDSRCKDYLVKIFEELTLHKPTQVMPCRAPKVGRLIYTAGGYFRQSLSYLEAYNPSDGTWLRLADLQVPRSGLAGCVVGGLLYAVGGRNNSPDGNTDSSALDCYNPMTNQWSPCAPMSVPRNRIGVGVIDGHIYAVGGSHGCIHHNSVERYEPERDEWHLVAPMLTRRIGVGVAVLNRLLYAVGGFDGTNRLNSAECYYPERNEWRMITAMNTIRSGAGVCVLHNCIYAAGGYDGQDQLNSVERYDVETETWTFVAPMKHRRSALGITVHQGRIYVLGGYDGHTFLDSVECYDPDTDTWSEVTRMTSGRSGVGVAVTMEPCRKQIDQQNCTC
T2 sequence (P25440 74-180 limits assumed): as the sequence (P25440 74-180 limits assumed) above
T2 sequence (Q14145 whole entry, further chain): as the sequence (Q14145 whole entry) above

As to `COc1cc(C(CC(=O)O)c2ccc(C)c(CN(C)S(=O)(=O)c3ccc(OCCCCCCNC(=O)C[C@@H]4N=C(c5ccc(Cl)cc5)c5c(sc(C)c5C)-n5c(C)nnc54)cc3)c2)cc2nnn(C)c12` (stereo partly drawn) [compound 9, 3-(3-((4-(6-(2-((6S)-4-(4-chlorophenyl)-2,3,9-trimethyl-6H-thieno[3,2-f][1,2,4]triazolo[4,3-a][1,4]diazepin-6-yl)acetamido)hexyloxy)-N-methylphenylsulfonamido)methyl)-4-methylphenyl)-3-(7-methoxy-1-methyl-1H-benzo[d][1,2,3]triazol-5-yl)propanoic acid], in experiment [1], the “rescue of BRD2^BD1 degradation by MLN4924” value is given as “rescued by the neddylation inhibitor, MLN4924”. For the same molecule, the “rescue of BRD2^BD1 degradation by JQ1” value in experiment [2] was “can be rescued by JQ1”. For the same molecule, in experiment [3] (5 μM, 24 h), the “degradation of BRD4 (immunoblot)” value is “slightly degraded”. Moreover, the “degradation of BRD3 (immunoblot)” value in experiment [4] (5 μM, 24 h) is recorded as “slightly degraded”. In addition, the “BRD2 degradation (relative protein abundance vs DMSO)” value in experiment [5] is on record as “BRD2 degradation was observed”. For the same molecule, in experiment [6], the “degradation of BRD bromodomain reporters (normalized eGFP/RFP ratio), comparison between bromodomains” value is “modest preference for BRD2^BD1 and BRD4^BD1”. Moreover, the “degradation of BRD2 (immunoblot)” value in experiment [7] (5 μM, 24 h) is given as “slightly degraded”.
On to `COc1cc(C(CC(=O)O)c2ccc(C)c(CN3C[C@@H](C)Oc4cc(CCCCCCNC(=O)C[C@@H]5N=C(c6ccc(Cl)cc6)c6c(sc(C)c6C)-n6c(C)nnc65)ccc4S3(=O)=O)c2)cc2nnn(C)c12` (stereo partly drawn) [compound 1, 3-(3-(((R)-7-(6-(2-((S)-4-(4-chlorophenyl)-2,3,9-trimethyl-6H-thieno[3,2-f][1,2,4]triazolo[4,3-a][1,4]diazepin-6-yl)acetamido)hexyl)-4-methyl-1,1-dioxido-3,4-dihydro-2H-benzo[b][1,4,5]oxathiazepin-2-yl)methyl)-4-methylphenyl)-3-(7-methoxy-1-methyl-1H-benzo[d][1,2,3]triazol-5-yl)propanoic acid], for which, in experiment [3] (1 μM, both 14 and 24 h), the “degradation of BRD4 (immunoblot)” value is given as “strongly induced the degradation”. In addition, in experiment [3] (5 μM, 14 or 24 h), the “degradation of BRD4 (immunoblot), hook effect” value was “a decrease in BRD2, BRD3 and BRD4 degradation were observed”. In addition, the “degradation of BRD3 (immunoblot)” value in experiment [4] (1 μM, both 14 and 24 h) is given as “strongly induced the degradation”. For the same molecule, the “degradation of BRD3 (immunoblot), hook effect” value in experiment [4] (5 μM, 14 or 24 h) is “a decrease in BRD2, BRD3 and BRD4 degradation were observed”. Further, the “degradation of BRD bromodomain reporters (normalized eGFP/RFP ratio), comparison between bromodomains” value in experiment [6] is given as “with the exception of BRD4BD1, bifunctional compound 1 targeted BRD-BD proteins with similar efficiency”. The “degradation of BRD2 (immunoblot)” value in experiment [7] (1 μM, both 14 and 24 h) is “slightly decreased the abundance”. Besides, the “degradation of BRD2 (immunoblot), hook effect” value in experiment [7] (5 μM, 14 or 24 h) is “a decrease in BRD2, BRD3 and BRD4 degradation were observed”. The “rescue of BRD2BD2 degradation by JQ1” value in experiment [8] (pre-treated with 10 μM JQ1 for 1 hour) is given as “can be rescued by JQ1”. The “rescue of BRD2BD2 degradation by MLN4924” value in experiment [8] (pre-treated with 10 μM MLN4924 for 1 hour) was “rescued by the neddylation inhibitor, MLN4924”.

Source of the values: patent US12365677B2, “Degraders that target proteins via KEAP1” (DANA-FARBER CANCER INSTITUTE, INC., priority 2018, dated 2025).
